Where two headings read alike, the source gives them in different places.
Legend:
[1] = target: T1, OBP14 (Apis mellifera, UniProt A0A8U0WQC3); test: biochemical; format: binding, honeybees; conditions: for binding to OBP14 (in words): qualitative ranking from biosensor results; for kon: read-out: [kon] / M^-1s^-1
[2] = target: T1, OBP14; conditions: fluorescent displacement assays, literature; cited from earlier work
[3] = 10^- 6[KD] /M, Table 1, KD = 1/KA from titration, Langmuir model, 1mM PBS, pH = 8.0
[4] = KD, from Langmuir isotherm plot, half saturation concentration (50% surface coverage)
[5] = KD, from the kinetic measurement (titration fitted with Langmuir model)
[6] = Table 1, affinity constant KA = kon/koff from titration, Langmuir model, 1mM PBS, pH = 8.0
[7] = Table 2, affinity constant KA = kon/koff from titration, Langmuir model fit
[8] = 10^-6 [KD] /M, Table 2, KD = 1/KA from titration, Langmuir model fit
[9] = dissociation constant of KD, control experiment, eugenol and methyl eugenol on the same sensor device
[10] = 10^2 [KA] /M^-1, Table 2, affinity constant KA = kon/koff from titration, Langmuir model fit
[11] = Table 2, association rate constant from titration fit
[12] = Table 2, dissociation rate constant from final buffer wash fit, read-out: [ koff] / s^-1

T1 sequence (A0A8U0WQC3 entry or part of it): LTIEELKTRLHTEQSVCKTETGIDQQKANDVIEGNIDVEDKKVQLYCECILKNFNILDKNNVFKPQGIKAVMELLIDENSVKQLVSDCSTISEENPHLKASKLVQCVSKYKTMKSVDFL

With `CC(C)=CCCC(C)=CC=O` (mixture of isomers) [Citral, (2E)-3,7-dimethylocta-2,6-dienal] as the molecule, how does the Kd [1, 3] read?
The Kd was 589.2 ± 0.6 µM.

What about the Kd [1, 4] of the same molecule?
Its Kd is 550 µM.

And the Kd [1, 5]?
The Kd was 590 µM.

What about the “10^2 [KA] /M^-1” value [1, 6] of the same molecule?
The value was 16.97 ± 0.02 10^2 M^-1.

What about the “binding to OBP14 (in words)” value [1] of the same molecule?
Its value is “moderate or weak binders”.

And the koff ([1]; read-out: [koff] /s ^-1)?
Its koff is 0.0035 s⁻¹.

Which results are given for `CC(=O)OCCC(C)C` [Isoamyl acetate, 3-methylbutyl acetate]?
Kd ([1]; Table 1, KD = 1/KA from titration, Langmuir model, 1mM PBS, pH = 8.0, read-out: 10^- 6[KD] /M): 814 ± 58 µM; 10^2 [KA] /M^-1 [1, 6]: 12.33 ± 0.86 10^2 M^-1; [kon] /M^1s^-1 ([1]; Table 1, association rate constant from titration fit): 8.3 ± 0.6 M^1s^-1; koff ([1]; Table 1, dissociation rate constant from final buffer wash fit, read-out: [koff] /s ^-1): 0.0068 s⁻¹; binding to OBP14 (in words) [1]: behave poorly

With `COc1cc(CCC(C)=O)ccc1O` [Vanillyl acetone, 4-(4-hydroxy-3-methoxyphenyl)butan-2-one] as the molecule, how does the “10^2 [KA] /M^-1” value [1, 7] read?
Its value is 409.7 ± 0.3 10^2 M^-1.

And the Kd ([1]; read-out: 10^-6 [KD] /M)?
Its Kd is 24.4 ± 0.02 µM.

What about the koff ([1]; read-out: [ koff] / s^-1) of the same molecule?
Its koff is 0.007 s⁻¹.

And the kon [1]?
Its kon is 286.8 ± 0.2 M⁻¹ s⁻¹.

Which results are given for `C=CCc1ccc(O)c(OC)c1` [Eugenol, 4-Allyl-2-methoxyphenol]?
koff [1]: 0.003 s⁻¹; real-time response (ΔIDS) of the biosensor ([1]; 5 µM eugenol solution compared with a 10 fold higher concentrated methyl eugenol solution, same sensor device): significantly higher; Kd [1, 3]: 9.2 ± 0.7 µM; Kd [1, 8]: 9.2 ± 0.7 µM; Kd [1, 4]: 1.9 µM; Kd [1, 5]: 9.2 µM; 10^2 [KA] /M^-1 [1, 6]: 1087 ± 91 10^2 M^-1; 10^2 [KA] /M^-1 [1, 7]: 1087 ± 91 10^2 M^-1; Kd [1, 9]: 19 µM; binding to OBP14 (in words) [1]: high affinity; koff ([1]; read-out: [ koff] / s^-1): 0.003 s⁻¹; koff ([1]; read-out: [koff] /s ^-1): 0.003 s⁻¹; kon [1]: 326 ± 27 M⁻¹ s⁻¹

With `COc1cc(/C=C/C=O)ccc1O` [Coniferyl aldehyde, (E)-3-(4-hydroxy-3-methoxyphenyl) prop-2-enal] as the molecule, how does the “affinity to OBP14 (in words)” value [2] read?
Its value is “did not show good affinity”.

And the Kd [1, 10]?
The Kd was 8.06 µM.

And the Kd [1, 8]?
Its Kd is 9.1 ± 2.3 µM.

And the koff ([1]; read-out: [ koff] / s^-1)?
Its koff is 0.003 s⁻¹.

What about the kon [1] of the same molecule?
The kon was 370 ± 190 M⁻¹ s⁻¹.

Which results are given for `COC(=O)c1ccc(O)c(OC)c1` [Methyl vanillate, Methyl 4-hydroxy-3-methoxybenzoate]?
Kd ([1]; Table 2, KD = 1/KA from titration, Langmuir model fit, read-out: 10^-6 [KD] /M): 22 ± 4.5 µM; 10^2 [KA] /M^-1 [1, 7]: 479 ± 136 10^2 M^-1; kon [1, 11]: 239 ± 68 M⁻¹ s⁻¹; koff [1, 12]: 0.005 s⁻¹; Kd ([1]; from Langmuir isotherm of change in drain current ΔIDS vs odorant concentration [Od] (Fig. 1D), read-out: KD): 10 µM; Kd ([1]; from Langmuir isotherm plot, half saturation concentration (50% surface coverage), read-out: KD): 24 µM; Kd ([1]; from linear relationship between reaction rate constant k and odorant concentration (Fig. 1B), read-out: KD): 30 µM; Kd ([1]; from the kinetic measurement (titration fitted with Langmuir model), read-out: KD): 22 µM

Which results are given for `COc1cc(CC(=O)O)ccc1O` [Homovanillic acid, 2-(4-Hydroxy-3-methoxy-phenyl)acetic acid]?
affinity to OBP14 (in words) [2]: did not show good affinity; Kd [1, 3]: 6.5 ± 0.7 µM; 10^2 [KA] /M^-1 [1, 6]: 1540 ± 140 10^2 M^-1; koff ([1]; read-out: [koff] /s ^-1): 0.0078 s⁻¹

Which Kd [1, 8] does the source give for `C=CCc1ccc(OC)c(OC)c1` [Methyl eugenol, 1,2-Dimethoxy-4-prop-2-enylbenzene] here?
The Kd was 520 ± 0.1 µM.

What about the “10^2 [KA] /M^-1” value [1, 7] of the same molecule?
Its value is 19.23 ± 0.03 10^2 M^-1.

What about the kon [1, 11] of the same molecule?
The kon was 8.92 ± 0.01 M⁻¹ s⁻¹.

And the koff [1, 12]?
The koff was 0.0046 s⁻¹.

And the Kd [1, 9]?
Its Kd is 590 µM.

What about the “concentration at which equilibrium was achieved, relative to the other odorants” value ([1]; titration curves Fig. 3, compared with three ligands with phenolic based structure) of the same molecule?
The value was “about 10 fold”.

For `CC(C)=CCC/C(C)=C/CO` [Geraniol, (2E)-3,7-Dimethylocta-2,6-dien-1-ol], which Kd [1, 3] is on record?
Its Kd is 1120 ± 5 µM.

What about the “10^2 [KA] /M^-1” value [1, 6] of the same molecule?
The value was 8.96 ± 0.04 10^2 M^-1.

What about the “binding to OBP14 (in words)” value [1] of the same molecule?
The value was “moderate or weak binders”.

What about the koff ([1]; read-out: [koff] /s ^-1) of the same molecule?
Its koff is 0.0077 s⁻¹.

For `CC(=O)CCC=C(C)C` [Sulcatone, 6-Methylhept-5-en-2-one], which Kd [1, 3] is on record?
The Kd was 1410 ± 21 µM.

And the Kd [1, 4]?
The Kd was 1500 µM.

And the Kd [1, 5]?
The Kd was 1400 µM.

And the “10^2 [KA] /M^-1” value [1, 6]?
Its value is 7.07 ± 0.11 10^2 M^-1.

And the “binding to OBP14 (in words)” value [1]?
The value was “behave poorly”.

And the koff ([1]; read-out: [koff] /s ^-1)?
The koff was 0.0074 s⁻¹.

Which Kd [1, 10] does the source give for `COc1cc(C=O)ccc1O` [Vanillin, 4-Hydroxy-3-methoxybenzaldehyd] here?
Its Kd is 20.7 µM.

And the Kd [1, 8]?
The Kd was 23.8 ± 6 µM.

And the kon [1, 11]?
Its kon is 191 ± 111 M⁻¹ s⁻¹.

And the koff [1, 12]?
Its koff is 0.0038 s⁻¹.

From patent publication EP2848929A1, “Graphene FET-based biosensor” (AIT Austrian Institute of Technology GmbH, priority 2013, dated 2015)
